Results on 29 molecules are retold here after patent US9718821B2, “Pyridopyrimidinone inhibitors of kinases” (AbbVie Inc., priority 2012, dated 2017).

T1 sequence (P30291 whole entry): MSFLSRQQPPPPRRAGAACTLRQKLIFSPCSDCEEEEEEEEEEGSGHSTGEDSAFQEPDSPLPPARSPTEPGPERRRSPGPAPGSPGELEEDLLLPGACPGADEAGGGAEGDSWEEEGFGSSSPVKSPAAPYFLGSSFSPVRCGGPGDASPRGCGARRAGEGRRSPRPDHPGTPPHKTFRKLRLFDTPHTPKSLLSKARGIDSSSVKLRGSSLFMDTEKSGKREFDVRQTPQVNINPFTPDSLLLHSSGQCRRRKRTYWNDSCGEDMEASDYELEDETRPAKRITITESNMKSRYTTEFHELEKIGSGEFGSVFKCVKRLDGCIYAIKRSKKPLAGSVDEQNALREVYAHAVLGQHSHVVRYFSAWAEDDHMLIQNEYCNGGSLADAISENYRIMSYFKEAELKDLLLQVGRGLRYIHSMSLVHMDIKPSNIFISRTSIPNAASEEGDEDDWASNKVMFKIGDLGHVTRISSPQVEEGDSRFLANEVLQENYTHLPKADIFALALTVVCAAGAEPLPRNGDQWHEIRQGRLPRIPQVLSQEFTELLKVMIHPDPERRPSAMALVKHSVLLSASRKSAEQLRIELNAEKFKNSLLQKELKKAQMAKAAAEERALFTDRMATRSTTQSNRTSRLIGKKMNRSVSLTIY

This assay concerns the target T1, GST-tagged-Wee1 kinase (Homo sapiens, UniProt P30291).
T1 construct: purchased Carnabio 05-177
The assay can be described thus: Wee1 time-resolved fluorescence equilibrium binding assay (displacement of Oregon Green-labeled ATP-competitive kinase probe). Particulars: enzyme binding data; GST-tagged-Wee1 kinase 2 nM, fluorescent probe 300 nM, inhibitor 0.003 to 10 micromolar, 1 hour incubation; read-out: Wee-1 binding (Ki nM). How it is done: Wee1 kinase was assayed using a time-resolved fluorescence equilibrium binding assay monitoring displacement of a rapidly reversible Oregon Green-labeled ATP-competitive kinase probe (N-(2-(2-(2-(4-(4-(5-chloro-4-(2-(1-hydroxycyclobutyl)thiazol-5-yl)-1H-pyrrolo[2,3-b]pyridin-2-yl)phenyl)piperazin-1-yl)ethoxy)ethoxy)ethyl)-2′,7′-difluoro-3′,6′-dihydroxy-3-oxo-3H-spiro[isobenzofuran-1,9′-xanthene]-5-carboxamide) by competitive Wee1 inhibitors.
Table 1 depicts enzyme binding data (Ki)for exemplary compounds.
`Cc1cn(-c2c(Cl)cccc2Cl)c(=O)c2cnc(Nc3ccc(NC4CCN(C)C4)cc3)nc12` (centres unmarked) [Example 125, 6-(2,6-dichlorophenyl)-8-methyl-2-({4[(1-methylpyrrolidin-3-yl)amino]phenyl}amino)pyrido[4,3-d]pyrimidin-5(6H)-one]: the Ki (commonly a dissociation constant, usually derived from enzyme kinetics or from competition with a known ligand) worked out at 0.3 nM.

Consider `Cc1cccc(C)c1-n1cc(C)c2nc(Nc3ccc(N4CCC(N(C)C)CC4)cc3)ncc2c1=O` [Example 89, 2-({4-[4-(dimethylamino)piperidin-1-yl]phenyl}amino)-6-(2,6-dimethylphenyl)-8-methylpyrido[4,3-d]pyrimidin-5(6H)-one], for which the Ki worked out at 0.897 nM. The value for `Cc1cn(-c2c(Cl)cccc2Cl)c(=O)c2cnc(Nc3ccc(S(=O)(=O)CCN(C)C)cc3)nc12` [Example 96, 6-(2,6-dichlorophenyl)-2-[(4-{[2-(dimethylamino)ethyl]sulfonyl}phenyl)amino]-8-methylpyrido[4,3-d]pyrimidin-5(6H)-one] was 1.8 nM; that for `C=Cc1cn(-c2c(F)cccc2Cl)c(=O)c2cnc(Nc3ccc4c(c3)CN(C)CC43CC3)nc12` [Example 63, 6-(2-chloro-6-fluorophenyl)-8-ethenyl-2-[(2′-methyl-2′,3′-dihydro-1′H-spiro[cyclopropane-1,4′-isoquinolin]-7′-yl)amino]pyrido[4,3-d]pyrimidin-5(6H)-one] was 0.9 nM.

As for `O=c1c2cnc(Nc3ccc4c(c3)CNCC4)nc2c(CF)cn1-c1c(Cl)cccc1Cl` [Example 109, 6-(2,6-dichlorophenyl)-8-(fluoromethyl)-2-(1,2,3,4-tetrahydroisoquinolin-7-ylamino)pyrido[4,3-d]pyrimidin-5(6H)-one], the Ki turned out to be 0.3 nM. On to `Cc1cn(-c2c(Cl)cccc2Cl)c(=O)c2cnc(Nc3ccc(N[C@H]4CC[C@H](N(C)C)CC4)cc3)nc12` [Example 132, 6-(2,6-dichlorophenyl)-2-[(4-{[trans-4-(dimethylamino)cyclohexyl]amino}phenyl)amino]-8-methylpyrido[4,3-d]pyrimidin-5(6H)-one], for which the Ki is 0.4 nM.

As to `O=c1c2cnc(Nc3ccc4c(c3)CNCC4)nc2c(C(F)F)cn1-c1c(Cl)cccc1Cl` [Example 87, 6-(2,6-dichlorophenyl)-8-(difluoromethyl)-2-(1,2,3,4-tetrahydroisoquinolin-7-ylamino)pyrido[4,3-d]pyrimidin-5(6H)-one], the Ki turned out to be 0.254 nM. The value for `Cc1cn(-c2c(F)cccc2Cl)c(=O)c2cnc(Nc3ccc4c(c3)CNCC43CC3)nc12` [Example 74, 6-(2-chloro-6-fluorophenyl)-2-(2′,3′-dihydro-1′H-spiro[cyclopropane-1,4′-isoquinolin]-7′-ylamino)-8-methylpyrido[4,3-d]pyrimidin-5(6H)-one] was 0.6 nM; that for `CN(C)CCCN1CCN(c2ccc(Nc3ncc4c(=O)n(-c5c(Cl)cccc5Cl)cc(CF)c4n3)cc2)CC1` [Example 140, 6-(2,6-dichlorophenyl)-2-[(4-{4-[3-(dimethylamino)propyl]piperazin-1-yl}phenyl)amino]-8-(fluoromethyl)pyrido[4,3-d]pyrimidin-5(6H)-one] was 0.2 nM; that for `Cc1nn(C)c(C)c1-n1cc(C)c2nc(Nc3ccc4c(c3)CNCC4)ncc2c1=O` [Example 119, 8-methyl-2-(1,2,3,4-tetrahydroisoquinolin-7-ylamino)-6-(1,3,5-trimethyl-1H-pyrazol-4-yl)pyrido[4,3-d]pyrimidin-5(6H)-one] was 1.6 nM. As to `Cc1cn(-c2c(F)cccc2Cl)c(=O)c2cnc(Nc3ccc(C4CCN(C)CC4)cc3)nc12` [Example 71, 6-(2-chloro-6-fluorophenyl)-8-methyl-2-{[4-(1-methylpiperidin-4-yl)phenyl]amino}pyrido[4,3-d]pyrimidin-5(6H)-one], the Ki was found to be 1.2 nM. The figure for `Cc1cn(-c2c(Cl)cccc2Cl)c(=O)c2cnc(Nc3ccc4c(c3)CN(CCN(C)C)C4)nc12` [Example 141, 6-(2,6-dichlorophenyl)-2-({2-[2-(dimethylamino)ethyl]-2,3-dihydro-1H-isoindol-5-yl}amino)-8-methylpyrido[4,3-d]pyrimidin-5(6H)-one] is 1 nM. Consider `Cc1cn(-c2ccccc2-c2cnco2)c(=O)c2cnc(Nc3ccc(N4CCC(N(C)C)CC4)cc3)nc12` [Example 106, 2-({4-[4-(dimethylamino)piperidin-1-yl]phenyl}amino)-8-methyl-6-[2-(1,3-oxazol-5-yl)phenyl]pyrido[4,3-d]pyrimidin-5(6H)-one], for which the Ki was 115 nM. The value for `Cc1cccc(Cl)c1-n1cc(C)c2nc(Nc3ccc(N4CCC(N(C)C)CC4)cc3)ncc2c1=O` [Example 91, 6-(2-chloro-6-methylphenyl)-2-({4-[4-(dimethylamino)piperidin-1-yl]phenyl}amino)-8-methylpyrido[4,3-d]pyrimidin-5(6H)-one] was 0.22 nM; that for `Cc1cn(-c2c(Cl)cccc2Cl)c(=O)c2cnc(Nc3ccc4c(c3)CN(C)C4(C)C)nc12` [Example 115, 6-(2,6-dichlorophenyl)-8-methyl-2-[(1,1,2-trimethyl-2,3-dihydro-1H-isoindol-5-yl)amino]pyrido[4,3-d]pyrimidin-5(6H)-one] was 0.2 nM.

Regarding `Cc1cn(-c2ccccc2-c2cnco2)c(=O)c2cnc(Nc3ccc4c(c3)CNCC4)nc12` [Example 105, 8-methyl-6-[2-(1,3-oxazol-5-yl)phenyl]-2-(1,2,3,4-tetrahydroisoquinolin-7-ylamino)pyrido[4,3-d]pyrimidin-5(6H)-one], the Ki is 122 nM. For `CC1(C)CNCc2cc(Nc3ncc4c(=O)n(-c5c(Cl)cccc5Cl)cc(CO)c4n3)ccc21` [Example 58, 6-(2,6-dichlorophenyl)-2-[(4,4-dimethyl-1,2,3,4-tetrahydroisoquinolin-7-yl)amino]-8-(hydroxymethyl)pyrido[4,3-d]pyrimidin-5(6H)-one], the Ki came to 0.1 nM. With `Cc1cccc(F)c1-n1cc(C)c2nc(Nc3ccc(N4CCC(N(C)C)CC4)cc3)ncc2c1=O` [Example 104, 2-({4-[4-(dimethylamino)piperidin-1-yl]phenyl}amino)-6-(2-fluoro-6-methylphenyl)-8-methylpyrido[4,3-d]pyrimidin-5(6H)-one], the Ki was 0.9 nM. The figure for `CN(C)C1CCN(c2ccc(Nc3ncc4c(=O)n(-c5c(Cl)cccc5Cl)cc(CO)c4n3)cc2)CC1` [Example 55, 6-(2,6-dichlorophenyl)-2-({4-[4-(dimethylamino)piperidin-1-yl]phenyl}amino)-8-(hydroxymethyl)pyrido[4,3-d]pyrimidin-5(6H)-one] is 0.6 nM. In the case of `Cc1cn(-c2c(Cl)cccc2Cl)c(=O)c2nnc(Nc3ccc4c(c3)CNCC4)nc12` [Example 134, 7-(2,6-dichlorophenyl)-5-methyl-3-(1,2,3,4-tetrahydroisoquinolin-7-ylamino)pyrido[4,3-e][1,2,4]triazin-8(7H)-one], the Ki amounted to 6.5 nM.

`Cc1cn(-c2ccccc2O)c(=O)c2cnc(Nc3ccc4c(c3)CNCC4)nc12` [Example 117, 6-(2-hydroxyphenyl)-8-methyl-2-(1,2,3,4-tetrahydroisoquinolin-7-ylamino)pyrido[4,3-d]pyrimidin-5(6H)-one]: the Ki came out at 2 nM. The value for `CN(C)C1CCN(c2ccc(Nc3ncc4c(=O)n(-c5c(Cl)cccc5Cl)cc(CF)c4n3)cc2)CC1` [Example 111, 6-(2,6-dichlorophenyl)-2-({4-[4-(dimethylamino)piperidin-1-yl]phenyl}amino)-8-(fluoromethyl)pyrido[4,3-d]pyrimidin-5(6H)-one] was 0.2 nM; that for `Cc1cn(-c2c(Cl)cccc2Cl)c(=O)c2cnc(Nc3ccc(C4CCN(C)CC4)cc3)nc12` [Example 78, 6-(2,6-dichlorophenyl)-8-methyl-2-{[4-(1-methylpiperidin-4-yl)phenyl]amino}pyrido[4,3-d]pyrimidin-5(6H)-one] was 0.2 nM. The value for `O=c1c2cnc(Nc3ccc4c(c3)CNCC43CC3)nc2c(CO)cn1-c1c(Cl)cccc1Cl` [Example 57, 6-(2,6-dichlorophenyl)-2-(2′,3′-dihydro-1′H-spiro[cyclopropane-1,4′-isoquinolin]-7′-ylamino)-8-(hydroxymethyl)pyrido[4,3-d]pyrimidin-5(6H)-one] was 0.1 nM. The value for `Cc1cn(-c2c(F)cccc2Cl)c(=O)c2cnc(Nc3ccc(N4CCN(C)CC4)cc3)nc12` [Example 66, 6-(2-chloro-6-fluorophenyl)-8-methyl-2-{[4-(4-methylpiperazin-1-yl)phenyl]amino}pyrido[4,3-d]pyrimidin-5(6H)-one] was 0.9 nM; that for `Cc1cn(-c2c(F)cccc2Cl)c(=O)c2cnc(Nc3ccc(N4CCC(N(C)C)CC4)cc3)nc12` [Example 69, 6-(2-chloro-6-fluorophenyl)-2-({4-[4-(dimethylamino)piperidin-1-yl]phenyl}amino)-8-methylpyrido[4,3-d]pyrimidin-5(6H)-one] was 2.4 nM. For `C=Cc1cn(-c2c(Cl)cccc2Cl)c(=O)c2cnc(Nc3ccc4c(c3)CNCC43CC3)nc12` [Example 51, 6-(2,6-dichlorophenyl)-2-(2′,3′-dihydro-1′H-spiro[cyclopropane-1,4′-isoquinolin]-7′-ylamino)-8-ethenylpyrido[4,3-d]pyrimidin-5(6H)-one], the Ki came to 0.4 nM.

For `CN1Cc2cc(Nc3ncc4c(=O)n(-c5c(Cl)cccc5Cl)cc(CO)c4n3)ccc2C2(CC2)C1` [Example 53, 6-(2,6-dichlorophenyl)-8-(hydroxymethyl)-2-[(2′-methyl-2′,3′-dihydro-1′H-spiro[cyclopropane-1,4′-isoquinolin]-7′-yl)amino]pyrido[4,3-d]pyrimidin-5(6H)-one], the inhibitory constant (Ki) came out at 0.3 nM. In the case of `Cc1cn(-c2ccccc2Cl)c(=O)c2cnc(Nc3ccc(N4CCC(N(C)C)CC4)cc3)nc12` [Example 99, 6-(2-chlorophenyl)-2-({4-[4-(dimethylamino)piperidin-1-yl]phenyl}amino)-8-methylpyrido[4,3-d]pyrimidin-5(6H)-one], the inhibitory constant (Ki) was 0.9 nM.
